Experimental data from US8580512B2, “Yeast-based methods of identifying nucleic acids and compounds for treating neurodegenerative diseases” (University of Alabama, priority 2008, dated 2013).

Columns and labels:
S. pombe cells [1] = experiment: Reversal of rotenone-induced proliferation inhibition; format: cell-based, Schizosaccharomyces pombe
Description: Phosphatidylethanolamine (PE) deficiency results in a rotenone-sensitive phenotype that can be suppressed by ethanolamine. Log phase cultures were suspended at 10^7 cells/ml, serially diluted (1:10), and spotted (5 μl per spot) onto YES (Control) or YES containing 16 μM rotenone (+Rotenone).
Oxidative stress has been detected in the brains of deceased Parkinson's disease patients, and in rats exposed to rotenone as a model for Parkinson's disease.

S. pombe cells [2] = details: 0.3 μg/ml rotenone, Heslot et al. 1970; cited from earlier work
S. pombe cells [3] = experiment: DIC microscopy of cell morphology; format: cell-based, Schizosaccharomyces pombe; details: wild type, rotenone 6.4 μg/ml, 4 to 24 hrs
Source text: To determine whether rotenone induces abnormalities in S. pombe cell morphology, rotenone-treated and untreated S. pombe cells were compared by DIC microscopy.

S. pombe cells [4] = experiment: Rotenone sensitivity assay (serial dilution spot growth on agar media); format: cell-based, Schizosaccharomyces pombe; details: for sensitivity of growth to rotenone: 16 μM rotenone; for sensitivity of growth to rotenone relative to wild type: rotenone 6.4 μg/ml; for inhibition of S. pombe growth: wild type
Description: Yeast strains, media, and genetic methods. The following S. pombe strains were used in this study: SP870 (h90 ade6-210 leu1-32 ura4-D18), SPSPC1 U90 (h90 ade6-210 leu1-32 ura4-D18 spc1::ura4), SPM1L (h90 leu1-32 ura4-D18 spm1::LEU2). S. pombe cultures were grown in either YES medium (0.5% yeast extract; 3% dextrose; and adenine, histidine, leucine, lysine and uracil, each at 250 mg/L) or Edinburgh minimal medium (EMM) containing required auxotrophic supplements (Alfa et al., (1993) Experiments with fission yeast: A laboratory course manual, Cold Spring Harbor Laboratory Press, Cold Spring Harbor, N.Y., incorporated herein by reference in its entirety). Agar media contained 2% Bacto agar (Difco).
Rotenone sensitivity assay. Rotenone stock solutions (10 mM in DMSO) were prepared just prior to carrying out each experiment and protected from light. Rotenone containing YES and EMM agar media were prepared by mixing rotenone stock solution with growth medium as required for the desired rotenone concentration (up to 6.4 μg/ml). For agar media, rotenone stock solution was added after autoclaving and cooling of the media to approximately 45° C. DMSO was added to control media at concentrations equivalent to that in media supplemented with rotenone. Plates were incubated at room temperature for 3-12 hr prior to use. S. pombe strains were cultured overnight in YES liquid medium at 30° C. to mid-log phase, concentrated to 5×10^6 cells/ml, and serially diluted (1:5). Three μl of each dilution was spotted onto rotenone containing plates and control plates and the plates were incubated at 30° C. for 2-4 days, as indicated in relevant figure legends.
Effects of rotenone on S. pombe cell growth in nutrient-enriched and nutrient-limited conditions. To investigate the effects of rotenone on S. pombe cell growth, we prepared complex rich (YES) and synthetic defined minimal (EMM) agar media containing concentrations of rotenone ranging from 0.2 to 6.4 μg/ml. […] Since rotenone has a relatively short half-life in aqueous solutions, growth media containing the toxin were prepared freshly prior to each experiment. Mid-log phase cultures of wild type S. pombe cells were serially diluted and tested for growth on YES and EMM plates containing rotenone and on control media lacking the toxin.
To determine whether spc1Δ and/or pmk1Δ mutants are hypersensitive to rotenone, log phase cultures of the two strains and wild type S. pombe cells were serially diluted and tested for growth on YES medium containing rotenone and on control medium lacking the toxin. […] The reduced sensitivity of spc1Δ cells to rotenone was most evident after incubation of the cultures for two days (FIG. 8A), with the difference after 3 days of growth being apparent from examination of colony sizes at the end of the cell dilution series on the respective plates (FIG. 8B).

S. pombe cells [5] = experiment: MitoTracker Green FM staining of mitochondrial localization; format: cell-based, Schizosaccharomyces pombe
Description: (§1) MitoTracker Green FM and dihydroethidium (DHE) staining of S. pombe cells. Mitochondrial localization was detected by staining S. pombe cells with MitoTracker Green FM (MTGreen) based on the protocol recommended by the manufacturer (Invitrogen). Briefly, S. pombe cells were cultured overnight in YES liquid medium at 30° C. to mid-log phase. Where indicated, rotenone stock solution was added to portions of each culture to a final concentration of 6.4 μg/ml. Equivalent volumes of DMSO were added to control cultures. Stock solutions of MTGreen (5 μM in DMSO) were prepared just prior to use. Staining was carried out by adding 10 μl of MTGreen stock solution to 1 ml of cell culture and incubating at 30° C. with shaking for 20 min. Stained cells were washed once with YES and resuspended in approximately 10 μl of YES prior to preparation of samples for microscopy. Stained cells were concentrated by centrifugation to a volume of approximately 10 μl. DHE staining was carried out as described by Huard et al., (2008) Cell Res. 18: 961-973, incorporated herein by reference in its entirety. Stained cells were visualized by epifluorescence microscopy using a Nikon 90i automated epifluorescence microscope system operated using Nikon NIS-Elements software. Images were captured using a CoolSNAP HQ2 monochrome CCD camera (Photometrics). RAW images were level-adjusted using the Adobe PhotoShop CS3 software application.
Rotenone induces disruption of mitochondrial localization in S. pombe cells. Similar to some mammalian cells, such as fibroblasts and nerve cells (Barsoum et al., (2006) EMBO J. 25: 3900-3911; Amchenkova et al., (1988) J. Cell. Biol. 107: 481-495), mitochondria in S. pombe are organized into tubular structures (Chiron et al., (2007) Methods Mol. Biol. 372: 91-105), as shown in FIG. 5A. […] Wild type S. pombe cells were cultured to mid-log phase in YES liquid medium were treated with rotenone (6.4 μg/ml) for 4 hr, stained with the fluorescent mitochondrial dye MitoTracker Green FM (MTGreen), and visualized by fluorescence microscopy. […]

S. pombe cells [6] = experiment: Dihydroethidium (DHE) staining for ROS; format: cell-based, Schizosaccharomyces pombe; details: rotenone 6.4 μg/ml; for ROS levels (DHE): wild type
Description: as §1
Rotenone induces generation of ROS in S. pombe cells. Since rotenone induces generation of ROS in mammalian cell cultures and oxidative stress damage in the brains of rats chronically treated with the toxin (Li et al., (2003) J. Biol. Chem. 278: 8516-8525; Greenamyre et al., (2003) Parkinsonism Relat. Disord. 9 (Suppl 2): S59-64), it was determined whether rotenone also induces generation of ROS in S. pombe cells. To do this, wild type S. pombe cells were treated with rotenone and periodically analyzed the treated cells by staining with dihydroethidium (DHE), which is oxidized to ethidium in the presence of ROS (Bindokas et al., (1996) J. Neurosci. 16: 1324-1336).
Pmk1, but not Spc1, is required for normal clearance of rotenone-induced ROS in S. pombe cells. To investigate further the effects of rotenone on spc1Δ and pmk1Δ cells, we treated the two strains and wild type S. pombe cells were treated with rotenone for 12 hrs and stained cells from treated and control cultures with DHE for detection of ROS by fluorescence microscopy.

O=C1O[C@H]([C@@H](O)CO)C(O)=C1O [ascorbic acid]
reversal of rotenone-induced proliferation inhibition (S. pombe cells [1]; pka1Δ S. pombe cells): reversed
reversal of rotenone-induced proliferation inhibition (S. pombe cells [1]; wild-type S. pombe cells, nutrient stressed conditions): reversed

NCCO [ethanolamine]
suppression of rotenone-sensitive phenotype (S. pombe cells [1]; psd1-3Δ (phosphatidylethanolamine deficient) strain, YES with 16 μM rotenone, 1 mM ethanolamine): suppressed

C=C(C)[C@H]1Cc2c(ccc3c2O[C@@H]2COc4cc(OC)c(OC)cc4[C@@H]2C3=O)O1 [rotenone]
effect on S. pombe cell growth (S. pombe cells [2]): negligible effect
defects in S. pombe cell morphology (S. pombe cells [3]): does not induce obvious defects
sensitivity of growth to rotenone (S. pombe cells [4]; aks1Δ mutant, complex YES medium): strongly hypersensitive
sensitivity of growth to rotenone (S. pombe cells [4]; cgs1Δ mutant, complex YES medium): does not significantly increase the sensitivity
sensitivity of growth to rotenone (S. pombe cells [4]; cgs1Δaks1Δ double mutant, complex YES medium): allowing the yeast to proliferate in the presence of rotenone
sensitivity of growth to rotenone (S. pombe cells [4]; pka1Δ mutant, complex YES medium): strongly hypersensitive
sensitivity of growth to rotenone relative to wild type (S. pombe cells [4]; pmk1Δ mutant, YES medium, 3 days): profoundly more sensitive
sensitivity of growth to rotenone (S. pombe cells [4]; psd1Δ psd2Δ psd3Δ triple deletion, complex medium): increased sensitivity
sensitivity of growth to rotenone relative to wild type (S. pombe cells [4]; spc1Δ mutant, YES medium, 2-3 days): slightly less sensitive
sensitivity of growth to rotenone (S. pombe cells [4]; spc1Δ mutant, complex YES medium): not hypersensitive
inhibition of S. pombe growth (S. pombe cells [4]; EMM minimal medium, 1.6 μg/ml rotenone, 4 days at 30° C.): slightly inhibited
inhibition of S. pombe growth (S. pombe cells [4]; EMM minimal medium, 6.4 μg/ml rotenone, 4 days at 30° C.): strongly inhibited
inhibition of S. pombe growth (S. pombe cells [4]; YES medium, 6.4 μg/ml rotenone, 3 days at 30° C.): modest inhibition
inhibition of S. pombe growth (S. pombe cells [4]; YES medium, rotenone concentrations lower than 6.4 μg/ml (from 0.2 μg/ml)): not on YES containing lower concentrations
cells with fragmentation of mitochondrial localization (S. pombe cells [5]; pmk1Δ cells, rotenone 6.4 μg/ml, 4 hr): approximately 70 % of cells
effect on mitochondrial localization (S. pombe cells [5]; spc1Δ cells, rotenone 6.4 μg/ml, 4 hr): marginal effect
persistence of fragmented pattern of mitochondrial localization after initial exposure (S. pombe cells [5]; wild type, continued culturing in rotenone containing medium, data not shown): at least 24 hrs
rotenone-induced ROS levels (DHE) relative to wild type (S. pombe cells [6]; pmk1Δ cells, 12 hrs): dramatically higher
rotenone-induced ROS levels (DHE) (S. pombe cells [6]; spc1Δ cells, 12 hrs): only a very slight increase
ROS levels (DHE) (S. pombe cells [6]; 6 hrs): higher levels of ROS than control cells
ROS levels (DHE) (S. pombe cells [6]; 12 hr): Higher levels of ROS
